From patent US20060058312A1, “Stabilized aqueous preparation for injection” (priority 2004, published 2006)

Legend:
[1] = Change of pH value of the aqueous solution during storage; type: physicochemical; conditions: added to aqueous solution of the calcium salt, pH 6 to 7, during storage
[2] = Transmittance and coloring of the aqueous solution during storage; type: physicochemical; conditions: added to aqueous solution of the calcium salt, during storage
From the text: The suppressing effect can be attained by the action of ascorbic acid which has been stabilized by sodium pyrosulfite.

## O=C1O[C@H]([C@@H](O)CO)C(O)=C1O [ascorbic acid]
[1]
  suppression of the change of the pH value to the acid region: effectively be suppressed
[2]
  suppression of the lowering of the transmittance and the coloring: effectively be suppressed
